Measurements taken from patent US9849212B2, “Implants for inducing soft and hard tissue integration” (NUMAT BIOMEDICAL S.L., priority 2013, dated 2017).

Tests used:
Assay type in all cases: physicochemical
[1] = Biomolecule release by UV-vis spectrometry after 24 h incubation in water; conditions: covalent linking via APTES, water pH 7.5, 37° C.
Experimental: The biomolecule release from functionalized implants after 24 h incubation in water at pH 7.5 and 37° C. was determined by UV-Vis spectroscopy. Implants were placed in a 96 well plate and 200 μl of water at pH 7.5 were added to each well. Samples were incubated at 37° C. during 24 h. Then, a 150 μl aliquot was withdrawn and the absorbance (λmax taxifolin=290 nm, λmax quercitrin=350 nm) was measured using a Biotek UV-vis plate reader spectrophotometer. Two sample replicates were measured.

[2] = Flavonoid release profile by UV-Vis spectroscopy, simulating HGF culture media changes; conditions: water pH 7.5, 37° C.
Experimental: (§1) The flavonoid release profile from coated surfaces in water media, simulating physiologic conditions (pH 7.5, 37° C.) was measured by UV-Vis spectroscopy. Implants were placed in a 96 well plate and 200 μl of water at pH 7.5 were added to each well. […] Each time, a 150 μl aliquot was withdrawn and the absorbance (λTaxifolin=290 nm, λQuercitrin=350 nm) was measured in a 96 well Elisa plate using a Biotek UV-vis plate reader spectrophotometer. The concentration of flavonoid was calculated from interpolation of data in flavonoid standard calibration curves. Two replicates were measured for each sample. Passivated Ti substrates were used as blank samples for drop casted implants. Silanized Ti substrates were used as blank for covalently linked samples.

[3] = Flavonoid release profile by UV-Vis spectroscopy, simulating hUC-MSCs culture media changes; conditions: water pH 7.5, 37° C.
Experimental: as §1

[4] = Schiff base, not reduced (experiment FL14)

C μM, 24 h (release of flavonoid to water media) ([1]; Ti pretreat. UV, reduction step No (Schiff base)): 5.06 ± 0.59 µM
C μM, 24 h (release of flavonoid to water media) ([1]; Ti pretreat. UV, reduction step Yes (reduced Schiff base)): No det.
C μM, 24 h (release of flavonoid to water media) ([1]; Ti pretreat. passivation, reduction step No (Schiff base)): 10.22 ± 1.88 µM
C μM, 24 h (release of flavonoid to water media) ([1]; Ti pretreat. passivation, reduction step Yes (reduced Schiff base)): No det.
cumulative release at day one [2, 4]: 12.4 ± 4.0 nmol
released amount from 1 to 14 days [2, 4]: not significant
flavonoid released to the media after 1 h of incubation ([2]; covalently linked by Schiff base formation, not reduced (experiment FL14)): 7.9 ± 2.7 nmol
completeness of release at day 1 ([2]; drop casted substrates (experiment FL13), 6 nmol/disk taxifolin): almost complete
flavonoid released to the media after 1 h of incubation ([2]; drop casted substrates (experiment FL13), initial 6 nmol/disk taxifolin, 100 nmol/disk quercitrin): ~3.2 ± 0.4 nmol
total amount released after 14 days ([3]; Schiff base, not reduced (experiment FL17)): 2.6 ± 0.2 nmol
total amount released to media ([3]; drop casted substrates (experiment FL16), initial 20 nmol/disk taxifolin, 50 nmol/disk quercitrin, up to 14 days): 19.7 ± 0.7 nmol
Structure (SMILES): O=C1c2c(O)cc(O)cc2O[C@H](c2ccc(O)c(O)c2)[C@H]1O [TX, taxifolin]
flavonoid detected in the media ([2]; reduced Schiff base surfaces (experiment FL15), up to 14 days): No taxifolin neither quercitrin were detected
flavonoid detected in the media ([3]; reduced Schiff base surfaces (experiment FL18), up to 14 days): No taxifolin neither quercitrin were detected
